Tested on: IKZF2 (Helios)
Assay: IKZF2 reporter degradation assay (HEK 293T IKZF2-mNeonGreen reporter cell line)
Assay type: cell-based, human
Details: 1 μM compound, 24 hour incubation, HEK 293T IKZF2-mNeonGreen reporter
Summary of the method: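 HEK 293T lines stably expressing each IKZF-GGGGS×3-mNeonGreen-P2A-mScarlet reporter, 4000 cells/well in FluoroBrite medium, treated with compound (≤0.5% DMSO) for 24 h at 37 °C. Imaging measured percent mNeonGreen-positive cells, with mScarlet used for segmentation; DC50 from four-parameter logistic fit.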

SMILES | IKZF2 % Degradation @ 1 μM [%]
O=C1CCC(N2Cc3cc(O[C@H]4CCCC[C@@H]4N4CC(c5cccc(OC(F)(F)F)c5)C4)ccc3C2=O)C(=O)N1 (stereo partly drawn) [Compound 35, 3-(1-oxo-5-(((1S,2S)-2-(3-(3-(trifluoromethoxy)phenyl)azetidin-1-yl)cyclohexyl)oxy)isoindolin-2-yl)piperidine-2,6-dione] | 84.6
O=C1CCC(N2Cc3cc(O[C@H]4CCCC[C@@H]4N4CC(c5ccccc5O)C4)ccc3C2=O)C(=O)N1 (stereo partly drawn) [Compound 133, 3-(5-(((1S,2S)-2-(3-(2-hydroxyphenyl)azetidin-1-yl)cyclohexyl)oxy)-1-oxoisoindolin-2-1)piperidine-2,6-dione] | 56.4
O=C1CCC(N2Cc3cc(O[C@H]4CCCC[C@@H]4N4CC(c5cccc(F)c5)C4)ccc3C2=O)C(=O)N1 (stereo partly drawn) [Compound 111, 3-(5-(((1S,2S)-2-(3-(3-fluorophenyl)azetidin-1-yl)cyclohexyl)oxy)-1-oxoisoindolin-2-yl)piperidine-2,6-dione] | 76.5
O=C1CC[C@@H](N2Cc3cc(O[C@H]4CCCC[C@@H]4N4CC(c5ccccc5)C4)ccc3C2=O)C(=O)N1 [Compound 125, (R)-3-(1-oxo-5-(((1S,2S)-2-(3-phenylazetidin-1-yl)cyclohexyl)oxy)isoindolin-2-yl)piperidine-2,6-dione] | 83.2
O=C1CCC(N2Cc3cc(O[C@H]4CCCC[C@@H]4N4CC(c5ccccc5)C4)c(F)cc3C2=O)C(=O)N1 (single isomer, unassigned) [Compound 52] | 90.5
N#Cc1cc(Cl)ccc1C1CN([C@@H]2CCCC[C@@H]2Oc2ccc3c(c2)CN(C2CCC(=O)NC2=O)C3=O)C1 (mixture of isomers) [Compound 100, Rac-5-chloro-2-(1-((cis)-2-((2-(2,6-dioxopiperidin-3-yl)-1-oxoisoindolin-5-yl)oxy)cyclohexyl)azetidin-3-yl)benzonitrile] | <15
O=C1CCC(N2Cc3c(ccc(O[C@H]4CCCC[C@@H]4N4CC(c5ccccc5)C4)c3F)C2=O)C(=O)N1 (single isomer, unassigned) [Compound 66] | 74.8
O=C1CCC(N2Cc3cc(O[C@H]4CCCCC[C@@H]4N4CC(c5ccccc5)C4)ccc3C2=O)C(=O)N1 (stereo partly drawn) [Compound 131, 3-(1-oxo-5-(((1S,2S)-2-(3-phenylazetidin-1-yl)cycloheptyl)oxy)isoindolin-2-yl)piperidine-2,6-dione] | 92.3
O=C1CCC(N2Cc3cc(O[C@H]4CCCC[C@@H]4N4CC(c5ccc(N6CCOCC6)cc5)C4)ccc3C2=O)C(=O)N1 (stereo partly drawn) [Compound 124, 3-(5-(((1S,2S)-2-(3-(4-morpholinophenyl)azetidin-1-yl)cyclohexyl)oxy)-1-oxoisoindolin-2-yl)piperidine-2,6-dione] | 70.2
O=C1CCC(N2Cc3c(ccc(O[C@H]4CCCC[C@@H]4N4CC(c5ccccc5)C4)c3F)C2=O)C(=O)N1 (single isomer, unassigned) [Compound 65] | 75.1
O=C1CCC(N2Cc3cc(O[C@H]4CCCC[C@@H]4N4CC(c5ccccc5C(F)(F)F)C4)ccc3C2=O)C(=O)N1 (stereo partly drawn) [Compound 129, 3-(1-oxo-5-(((1S,2S)-2-(3-(2-(trifluoromethyl)phenyl)azetidin-1-yl)cyclohexyl)oxy)isoindolin-2-yl)piperidine-2,6-dione] | 83.8
O=C1CCC(N2Cc3cc(O[C@H]4CCCC[C@@H]4N4CC(c5ccccc5OC(F)(F)F)C4)ccc3C2=O)C(=O)N1 (stereo partly drawn) [Compound 36, 3-(1-oxo-5-(((1S,2S)-2-(3-(2-(trifluoromethoxy)phenyl)azetidin-1-yl)cyclohexyl)oxy)isoindolin-2-yl)piperidine-2,6-dione] | 82.3
O=C1CCC(N2Cc3cc(O[C@H]4CCCC[C@@H]4N4CC(c5ccc(F)cc5)C4)ccc3C2=O)C(=O)N1 (single isomer, unassigned) [Compound 50] | 73.6
O=C1CCC(N2Cc3cc(O[C@H]4CCCC[C@@H]4N4CC(c5cccc(F)c5F)C4)ccc3C2=O)C(=O)N1 (stereo partly drawn) [Compound 64, 3-(5-(((1S,2S)-2-(3-(2,3-difluorophenyl)azetidin-1-yl)cyclohexyl)oxy)-1-oxoisoindolin-2-yl)piperidine-2,6-dione] | 76.3
O=C1CCC(N2Cc3cc(O[C@H]4CCCC[C@@H]4N4CC(c5cccc(O)c5)C4)ccc3C2=O)C(=O)N1 (stereo partly drawn) [Compound 134, 3-(5-(((1S,2S)-2-(3-(3-hydroxyphenyl)azetidin-1-yl)cyclohexyl)oxy)-1-oxoisoindolin-2-yl)piperidine-2,6-dione] | 75
O=C1CCC(N2Cc3cc(O[C@H]4CCCC[C@@H]4N4CC(c5ccc(O)cc5)C4)ccc3C2=O)C(=O)N1 (stereo partly drawn) [Compound 132, 3-(5-(((1S,2S)-2-(3-(4-hydroxyphenyl)azetidin-1-yl)cyclohexyl)oxy)-1-oxoisoindolin-2-yl)piperidine-2,6-dione] | 77.2
O=C(O)CC(O)(CC(=O)O)C(=O)O.O=C1CCC(N2Cc3cc(O[C@H]4CCCC[C@@H]4N4CC(c5ccccc5)C4)ccc3C2=O)C(=O)N1 (stereo partly drawn) [Compound 130, 3-(1-oxo-5-(((1S,2S)-2-(3-phenylazetidin-1-yl)cyclohexyl)oxy)isoindolin-2-yl)piperidine-2,6-dione 2-hydroxypropane-1,2,3-tricarboxylate] | 84.8

Reference: US20240246935A1 (Plexium, Inc., priority 2021, published 2024)
